Source: patent publication US10683269B2 (MISSION THERAPEUTICS LIMITED, priority 2016, dated 2020)
pIC50: −log10 of the molar value.

The compounds below were run against T1, USP7 (Homo sapiens, UniProt Q93009) (assay: USP7 biochemical IC50 assay (fluorescence polarisation, TAMRA labelled peptide linked to ubiquitin via an iso-peptide bond)). Settings: 30 min pre-incubation of enzyme and compound, read after 2 hr incubation at room temperature, read-out: IC50 range.
T1 construct: The USP7 construct was PCR amplified and cloned into a pFLAG-CMV-6a vector (Sigma-Aldrich) with an N-terminal FLAG tag; made in house; host or cells: HEK293T
T1 sequence (Q93009 whole entry): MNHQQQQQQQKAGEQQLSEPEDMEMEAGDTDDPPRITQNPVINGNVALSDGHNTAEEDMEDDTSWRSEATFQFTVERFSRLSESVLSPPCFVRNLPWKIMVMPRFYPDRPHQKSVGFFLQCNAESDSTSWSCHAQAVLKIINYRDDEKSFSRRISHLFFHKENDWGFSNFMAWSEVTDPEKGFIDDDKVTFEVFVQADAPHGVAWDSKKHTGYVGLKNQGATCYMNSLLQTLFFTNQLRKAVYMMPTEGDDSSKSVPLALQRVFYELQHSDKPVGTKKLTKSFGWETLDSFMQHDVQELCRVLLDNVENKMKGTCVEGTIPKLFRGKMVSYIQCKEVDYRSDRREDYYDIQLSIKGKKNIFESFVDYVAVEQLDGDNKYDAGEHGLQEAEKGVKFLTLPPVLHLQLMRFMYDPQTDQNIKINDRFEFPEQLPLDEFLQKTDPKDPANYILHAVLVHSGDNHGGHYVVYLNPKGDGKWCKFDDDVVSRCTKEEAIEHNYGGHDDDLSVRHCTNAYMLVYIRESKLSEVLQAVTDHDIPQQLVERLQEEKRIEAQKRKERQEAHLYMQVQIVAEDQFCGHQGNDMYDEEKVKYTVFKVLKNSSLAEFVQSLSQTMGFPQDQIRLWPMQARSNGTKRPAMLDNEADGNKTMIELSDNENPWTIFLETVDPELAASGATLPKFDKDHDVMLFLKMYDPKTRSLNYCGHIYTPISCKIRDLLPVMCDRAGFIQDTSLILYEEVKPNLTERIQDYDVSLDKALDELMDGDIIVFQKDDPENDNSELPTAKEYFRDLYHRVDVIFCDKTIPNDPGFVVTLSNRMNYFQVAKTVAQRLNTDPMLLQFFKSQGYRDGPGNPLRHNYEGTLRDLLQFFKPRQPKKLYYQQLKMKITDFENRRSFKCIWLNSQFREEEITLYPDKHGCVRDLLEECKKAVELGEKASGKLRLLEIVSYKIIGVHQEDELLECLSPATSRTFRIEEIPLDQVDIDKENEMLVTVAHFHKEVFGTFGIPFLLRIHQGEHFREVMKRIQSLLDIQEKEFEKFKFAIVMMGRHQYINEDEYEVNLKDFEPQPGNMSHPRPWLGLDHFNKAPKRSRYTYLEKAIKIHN
How it was run: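 Fluorescence polarisation at 540 nm excitation/590 nm emission, read immediately and after 2 hr at room temperature, following addition of 50 nM TAMRA-labelled iso-peptide ubiquitin substrate.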

| Compound | pIC50 |
| --- | --- |
| Cn1cc(-c2nc3c(c(N4CCc5ccccc5C4)n2)CN(C#N)C3)cn1 [Example 142, 4-(3,4-dihydroisoquinolin-2(1H)-yl)-2-(1-methyl-1H-pyrazol-4-yl)-5,7-dihydro-6H-pyrrolo[3,4-d]pyrimidine-6-carbonitrile] | 5.00 to 6.00 |
| Cc1ccccc1-c1nc2c(c(N3CCCC3C(N)=O)n1)CN(C#N)C2 (stereo not shown) [Example 143, 1-(6-cyano-2-(o-tolyl)-6,7-dihydro-5H-pyrrolo[3,4-d]pyrimidin-4-yl)pyrrolidine-2-carboxamide] | 4.52 to 5.00 |
| Cc1[nH]ncc1-c1nc2c(c(N3CCCC3C(N)=O)n1)CN(C#N)C2 (stereo not shown) [Example 144, 1-(6-cyano-2-(5-methyl-1H-pyrazol-4-yl)-6,7-dihydro-5H-pyrrolo[3,4-d]pyrimidin-4-yl)pyrrolidine-2-carboxamide] | 4.52 to 5.00 |
| N#CN1Cc2nc(-c3cn[nH]c3)nc(N3CCc4ccccc4C3)c2C1 [Example 145, 4-(3,4-dihydroisoquinolin-2(1H)-yl)-2-(1H-pyrazol-4-yl)-5,7-dihydro-6H-pyrrolo[3,4-d]pyrimidine-6-carbonitrile] | 5.00 to 6.00 |
| COCCn1cc(-c2nc3c(c(N4CCc5ccccc5C4)n2)CN(C#N)C3)cn1 [Example 146] | > 6.00 |
| Cc1[nH]ncc1-c1nc2c(c(N3CCc4cccnc4C3)n1)CN(C#N)C2 [Example 147, 4-(5,8-dihydro-1,7-naphthyridin-7(6H)-yl)-2-(5-methyl-1H-pyrazol-4-yl)-5,7-dihydro-6H-pyrrolo[3,4-d]pyrimidine-6-carbonitrile] | 5.00 to 6.00 |
| CC(=O)Nc1nc2c(c(N3CCCC3)n1)CN(C#N)C2 [Example 148, N-(6-cyano-4-(pyrrolidin-1-yl)-6,7-dihydro-5H-pyrrolo[3,4-d]pyrimidin-2-yl)acetamide] | 4.52 to 5.00 |
| N#CN1Cc2nc(Cl)nc(-c3ccc(F)cc3)c2C1 [Example 149, 2-chloro-4-(4-fluorophenyl)-5,7-dihydro-6H-pyrrolo[3,4-d]pyrimidine-6-carbonitrile] | 4.52 to 5.00 |
| N#CN1Cc2nc(Cl)nc(-c3ccccc3F)c2C1 [Example 150, 2-chloro-4-(2-fluorophenyl)-5,7-dihydro-6H-pyrrolo[3,4-d]pyrimidine-6-carbonitrile] | 4.00 to 4.52 |
| Cc1nc2c(c(-c3ccc(F)cc3)n1)CN(C#N)C2 [Example 151, 4-(4-fluorophenyl)-2-methyl-5,7-dihydro-6H-pyrrolo[3,4-d]pyrimidine-6-carbonitrile] | 5.00 to 6.00 |
| N#CN1Cc2cccc(-c3ccccc3C(=O)N3CCCC3)c2C1 [Example 155, 4-(2-(pyrrolidine-1-carbonyl)phenyl)isoindoline-2-carbonitrile] | 4.52 to 5.00 |
| Cc1cc(-c2cccc3c2CN(C#N)C3)c(C(N)=O)cc1C#N [Example 156, 5-cyano-2-(2-cyanoisoindolin-4-yl)-4-methylbenzamide] | 5.00 to 6.00 |
| N#CN1Cc2cccc(-c3ccccc3C(N)=O)c2C1 [Example 157, 2-(2-cyanoisoindolin-4-yl)benzamide] | 5.00 to 6.00 |
| N#CN1Cc2cccc(-c3ccc(F)cc3C(N)=O)c2C1 [Example 158, 2-(2-cyanoisoindolin-4-yl)-5-fluorobenzamide] | 5.00 to 6.00 |
| CC(=O)c1ccccc1-c1cccc2c1CN(C#N)C2 [Example 159, 4-(2-acetylphenyl)isoindoline-2-carbonitrile] | 5.00 to 6.00 |
| CNS(=O)(=O)c1ccccc1-c1cccc2c1CN(C#N)C2 [Example 160, 2-(2-cyanoisoindolin-4-yl)-N-methylbenzenesulfonamide] | 5.00 to 6.00 |
| N#CN1Cc2cccc(-c3ccccc3S(N)(=O)=O)c2C1 [Example 161, 2-(2-cyanoisoindolin-4-yl)benzenesulfonamide] | 5.00 to 6.00 |
| CS(=O)(=O)c1ccccc1-c1cccc2c1CN(C#N)C2 [Example 162, 4-(2-(methylsulfonyl)phenyl)isoindoline-2-carbonitrile] | 5.00 to 6.00 |
| CN1CCC[C@@H](C(=O)Nc2cc3c(c(-c4ccncc4)c2)CN(C#N)C3)C1 [Example 163, (R)-N-(2-cyano-7-(pyridin-4-yl)isoindolin-5-yl)-1-methylpiperidine-3-carboxamide] | 5.00 to 6.00 |
| CN1CCC[C@@H](C(=O)Nc2cc3c(c(-c4cccnc4)c2)CN(C#N)C3)C1 [Example 164, (R)-N-(2-cyano-7-(pyridin-3-yl)isoindolin-5-yl)-1-methylpiperidine-3-carboxamide] | 5.00 to 6.00 |
| N#CN1Cc2cccc(-c3cccc4c3NC(=O)C4)c2C1 [Example 165, 4-(2-oxoindolin-7-yl)isoindoline-2-carbonitrile] | 5.00 to 6.00 |
| N#Cc1ccccc1-c1cccc2c1CN(C#N)C2 [Example 166, 4-(2-cyanophenyl)isoindoline-2-carbonitrile] | 5.00 to 6.00 |
| N#Cc1cc(F)ccc1-c1cccc2c1CN(C#N)C2 [Example 167, 4-(2-cyano-4-fluorophenyl)isoindoline-2-carbonitrile] | 5.00 to 6.00 |

| Compound | pIC50 |
| --- | --- |
| N#Cc1cccc(F)c1-c1cccc2c1CN(C#N)C2 [Example 168, 4-(2-cyano-6-fluorophenyl)isoindoline-2-carbonitrile] | 5.00 to 6.00 |
| N#Cc1cc(Cl)ccc1-c1cccc2c1CN(C#N)C2 [Example 169, 4-(4-chloro-2-cyanophenyl)isoindoline-2-carbonitrile] | 5.00 to 6.00 |
| COc1cccc(-c2cccc3c2CN(C#N)C3)c1C#N [Example 170, 4-(2-cyano-3-methoxyphenyl)isoindoline-2-carbonitrile] | 5.00 to 6.00 |
| COc1ccc(-c2cccc3c2CN(C#N)C3)c(C#N)c1 [Example 171, 4-(2-cyano-4-methoxyphenyl)isoindoline-2-carbonitrile] | 5.00 to 6.00 |
| COc1ccc(C#N)c(-c2cccc3c2CN(C#N)C3)c1 [Example 172, 4-(2-cyano-5-methoxyphenyl)isoindoline-2-carbonitrile] | 5.00 to 6.00 |
| COc1ccc(C#N)c(-c2cccc3c2CN(C#N)C3)n1 [Example 173, 4-(3-cyano-6-methoxypyridin-2-yl)isoindoline-2-carbonitrile] | 4.52 to 5.00 |
| CN(C)S(=O)(=O)c1ccccc1-c1cccc2c1CN(C#N)C2 [Example 174, 2-(2-cyanoisoindolin-4-yl)-N,N-dimethylbenzenesulfonamide] | 5.00 to 6.00 |
| CCNS(=O)(=O)c1ccccc1-c1cccc2c1CN(C#N)C2 [Example 175, 2-(2-cyanoisoindolin-4-yl)-N-ethylbenzenesulfonamide] | 5.00 to 6.00 |
| N#Cc1ccc(-c2cccc3c2CN(C#N)C3)c2c1CCC2=O [Example 176, 4-(7-cyano-3-oxo-2,3-dihydro-1H-inden-4-yl)isoindoline-2-carbonitrile] | 5.00 to 6.00 |
| N#Cc1ccc(-c2cccc3c2CN(C#N)C3)c(C(F)(F)F)c1 [Example 177, 4-(4-cyano-2-(trifluoromethyl)phenyl)isoindoline-2-carbonitrile] | 5.00 to 6.00 |
| N#CN1Cc2cccc(-c3ccccc3S(=O)(=O)N3CCC3)c2C1 [Example 178, 4-(2-(azetidin-1-ylsulfonyl)phenyl)isoindoline-2-carbonitrile] | 5.00 to 6.00 |
| N#CN1Cc2cccc(-c3ccccc3S(=O)(=O)NCCO)c2C1 [Example 179, 2-(2-cyanoisoindolin-4-yl)-N-(2-hydroxyethyl)benzenesulfonamide] | 5.00 to 6.00 |
| N#CN1Cc2cccc(-c3ccccc3C(=O)NCCn3cnccc3=O)c2C1 [Example 180, 2-(2-cyanoisoindolin-4-yl)-N-(2-(6-oxopyrimidin-1(6H)-yl)ethyl)benzamide] | 5.00 to 6.00 |
| N#Cc1cc(-n2ccnc2)ccc1-c1cccc2c1CN(C#N)C2 [Example 181, 4-(2-cyano-4-(1H-imidazol-1-yl)phenyl)isoindoline-2-carbonitrile] | 5.00 to 6.00 |
| COc1cccc(-c2nnc(-c3cnn(C)c3)c3c2CN(C#N)C3)c1 [Example 182, 1-(3-methoxyphenyl)-4-(1-methyl-1H-pyrazol-4-yl)-5,7-dihydro-6H-pyrrolo[3,4-d]pyridazine-6-carbonitrile] | 5.00 to 6.00 |
| N#CN1Cc2ncnc(N3CCc4ccccc4C3)c2C1 [Example 183, 4-(3,4-dihydroisoquinolin-2(1H)-yl)-5,7-dihydro-6H-pyrrolo[3,4-c]pyrimidine-6-carbonitrile] | 5.00 to 6.00 |
| Cc1ccccc1OC1CCN(c2ncnc3c2CN(C#N)C3)CC1 [Example 184, 4-(4-(o-tolyloxy)piperidin-1-yl)-5,7-dihydro-6H-pyrrolo[3,4-d]pyrimidine-6-carbonitrile] | 5.00 to 6.00 |
| COc1ccccc1OC1CCN(c2ncnc3c2CN(C#N)C3)CC1 [Example 186, 4-(4-(2-methoxyphenoxy)piperidin-1-yl)-5,7-dihydro-6H-pyrrolo[3,4-d]pyrimidine-6-carbonitrile] | 5.00 to 6.00 |
| CC(=O)Nc1nc2c(c(-c3ccc(F)cc3)n1)CN(C#N)C2 [Example 187, N-(6-cyano-4-(4-fluorophenyl)-6,7-dihydro-5H-pyrrolo[3,4-c]pyrimidin-2-yl)acetamide] | 5.00 to 6.00 |
| CS(=O)(=O)CCNc1nc2c(c(-c3ccccc3)n1)CN(C#N)C2 [Example 188, 2-((2-(methylsulfonyl)ethyl)amino)-4-phenyl-5,7-dihydro-6H-pyrrolo[3,4-d]pyrimidine-6-carbonitrile] | 5.00 to 6.00 |
| N#CN1Cc2nc(NC3CCOCC3)nc(-c3ccccc3)c2C1 [Example 189, 4-phenyl-2-((tetrahydro-2H-pyran-4-yl)amino)-5,7-dihydro-6H-pyrrolo[3,4-d]pyrimidine-6-carbonitrile] | 4.52 to 5.00 |
| CN(CCO)c1nc2c(c(-c3ccccc3)n1)CN(C#N)C2 [Example 190, 2-((2-hydroxyethyl)(methyl)amino)-4-phenyl-5,7-dihydro-6H-pyrrolo[3,4-d]pyrimidine-6-carbonitrile] | 5.00 to 6.00 |

Same assay, conditions: IC50 range, 30 min pre-incubation of enzyme and compound, read after 2 hr incubation at room temperature

| Compound | pIC50 |
| --- | --- |
| N#CN1Cc2ncnc(N3CCC(OCc4ccccc4)CC3)c2C1 [Example 185, 4-(4-(benzyloxy)piperidin-1-yl)-5,7-dihydro-6H-pyrrolo[3,4-d]pyriimidine-6-carbonitrile] | 4.52 to 5.00 |
